# Article PMC11233931, “Remodeling tumor‐associated macrophage for anti‐cancer effects by rational design of irreversible inhibition of mitogen‐activated protein kinase‐activated protein kinase 2” (MedComm, 2024)
# Key:
# Test in all cases: Eurofins kinase selectivity profile against 380 other human recombinant kinases (Table S2)
# Format in all cases: biochemical
# [1] = molecular target: T1, 380 human recombinant protein kinases (Homo sapiens, UniProt Q16654); conditions: PDHK4(h), read-out: Inhibition rate
# T1 construct: purchased Eurofins (Celle Lévescault)
# Procedure, shortened: (§1)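 Off-target profiling: one compound assayed by a commercial provider over 380 recombinant human protein kinases at various concentrations.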
# [2] = molecular target: T2, 380 human recombinant protein kinases (Homo sapiens, UniProt Q9NRM7); conditions: LATS2(h), read-out: Inhibition rate
# T2 construct: purchased Eurofins (Celle Lévescault)
# T2 sequence (Q9NRM7 1-1088): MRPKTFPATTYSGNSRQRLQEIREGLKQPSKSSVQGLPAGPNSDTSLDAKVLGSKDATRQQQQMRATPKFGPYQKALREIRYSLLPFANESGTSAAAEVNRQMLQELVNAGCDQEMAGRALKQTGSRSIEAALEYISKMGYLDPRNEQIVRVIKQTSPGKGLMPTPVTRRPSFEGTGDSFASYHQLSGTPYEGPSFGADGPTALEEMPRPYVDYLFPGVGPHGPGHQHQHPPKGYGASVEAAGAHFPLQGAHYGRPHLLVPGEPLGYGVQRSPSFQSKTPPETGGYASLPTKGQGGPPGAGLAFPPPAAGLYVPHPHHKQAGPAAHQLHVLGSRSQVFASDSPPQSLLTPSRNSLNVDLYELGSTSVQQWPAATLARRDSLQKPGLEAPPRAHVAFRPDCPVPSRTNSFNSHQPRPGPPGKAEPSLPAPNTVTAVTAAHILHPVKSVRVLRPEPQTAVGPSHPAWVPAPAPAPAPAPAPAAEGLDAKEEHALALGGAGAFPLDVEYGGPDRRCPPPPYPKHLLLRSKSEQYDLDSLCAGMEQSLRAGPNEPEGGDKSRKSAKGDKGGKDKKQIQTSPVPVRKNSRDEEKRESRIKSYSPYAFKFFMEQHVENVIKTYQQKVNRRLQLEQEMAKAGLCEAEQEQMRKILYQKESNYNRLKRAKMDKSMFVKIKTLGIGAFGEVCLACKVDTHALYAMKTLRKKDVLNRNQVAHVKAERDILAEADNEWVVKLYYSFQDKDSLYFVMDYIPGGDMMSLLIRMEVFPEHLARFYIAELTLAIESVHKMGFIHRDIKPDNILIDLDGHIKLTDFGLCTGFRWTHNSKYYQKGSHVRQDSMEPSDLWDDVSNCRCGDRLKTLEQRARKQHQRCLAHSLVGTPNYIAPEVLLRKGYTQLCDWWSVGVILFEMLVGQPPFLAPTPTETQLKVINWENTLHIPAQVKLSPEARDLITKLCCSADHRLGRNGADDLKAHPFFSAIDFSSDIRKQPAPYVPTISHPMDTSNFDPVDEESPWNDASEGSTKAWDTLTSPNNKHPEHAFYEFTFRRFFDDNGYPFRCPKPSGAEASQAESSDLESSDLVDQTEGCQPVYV
# Procedure, shortened: as §1
# [3] = molecular target: T3, 380 human recombinant protein kinases (Homo sapiens, UniProt O15530); conditions: PDK1(h), read-out: Inhibition rate
# T3 construct: purchased Eurofins (Celle Lévescault)
# T3 sequence (O15530 1-556): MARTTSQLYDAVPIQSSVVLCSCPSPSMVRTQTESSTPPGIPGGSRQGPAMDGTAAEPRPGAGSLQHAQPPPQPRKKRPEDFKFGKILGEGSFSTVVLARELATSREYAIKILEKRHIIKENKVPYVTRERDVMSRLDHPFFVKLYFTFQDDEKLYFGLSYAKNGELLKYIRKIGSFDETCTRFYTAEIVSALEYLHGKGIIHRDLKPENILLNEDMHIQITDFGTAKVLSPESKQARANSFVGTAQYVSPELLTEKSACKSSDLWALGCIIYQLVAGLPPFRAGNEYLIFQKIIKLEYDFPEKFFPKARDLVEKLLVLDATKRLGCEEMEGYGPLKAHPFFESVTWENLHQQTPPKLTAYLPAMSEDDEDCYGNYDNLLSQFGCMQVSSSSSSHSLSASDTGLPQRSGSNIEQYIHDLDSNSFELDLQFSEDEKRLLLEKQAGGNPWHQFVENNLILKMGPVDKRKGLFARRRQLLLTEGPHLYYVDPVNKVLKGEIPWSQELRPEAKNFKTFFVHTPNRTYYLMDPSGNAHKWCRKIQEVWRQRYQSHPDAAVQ
# Procedure, shortened: as §1
# [4] = molecular target: T4, 380 human recombinant protein kinases (Homo sapiens, UniProt Q52WX2); conditions: SBK1(h), read-out: Inhibition rate (%)
# T4 construct: purchased Eurofins (Celle Lévescault)
# Procedure, shortened: as §1
# [5] = molecular target: T5, 380 human recombinant protein kinases (Homo sapiens, UniProt P41240); conditions: CSK(h), read-out: Inhibition rate
# T5 construct: purchased Eurofins (Celle Lévescault)
# Procedure, shortened: as §1
# [6] = molecular target: T6, 380 human recombinant protein kinases (Homo sapiens, UniProt Q9Y6M4); conditions: CK1γ3(h), read-out: Inhibition rate
# T6 construct: purchased Eurofins (Celle Lévescault)
# Procedure, shortened: as §1
# [7] = molecular target: T7, 380 human recombinant protein kinases (Homo sapiens, UniProt P10721); conditions: cKit(h), read-out: Inhibition rate
# T7 construct: purchased Eurofins (Celle Lévescault)
# Procedure, shortened: as §1
# [8] = molecular target: T8, 380 human recombinant protein kinases (Homo sapiens, UniProt Q96SB4); conditions: SRPK1(h), read-out: Inhibition rate (%)
# T8 construct: purchased Eurofins (Celle Lévescault)
# Procedure, shortened: as §1
# T5 sequence (P41240 whole entry): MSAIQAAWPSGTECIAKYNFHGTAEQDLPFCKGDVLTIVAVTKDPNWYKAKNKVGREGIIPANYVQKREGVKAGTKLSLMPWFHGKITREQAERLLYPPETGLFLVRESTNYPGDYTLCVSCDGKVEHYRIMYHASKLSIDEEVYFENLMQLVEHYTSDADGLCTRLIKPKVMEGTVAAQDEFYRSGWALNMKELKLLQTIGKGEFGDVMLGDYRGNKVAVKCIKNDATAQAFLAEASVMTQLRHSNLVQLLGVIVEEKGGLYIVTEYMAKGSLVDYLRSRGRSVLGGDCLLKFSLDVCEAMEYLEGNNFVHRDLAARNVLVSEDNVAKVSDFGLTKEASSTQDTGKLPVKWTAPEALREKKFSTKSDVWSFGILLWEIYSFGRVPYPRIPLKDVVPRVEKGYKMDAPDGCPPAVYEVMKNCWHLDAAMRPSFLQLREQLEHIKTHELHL
# T8 sequence (Q96SB4 whole entry): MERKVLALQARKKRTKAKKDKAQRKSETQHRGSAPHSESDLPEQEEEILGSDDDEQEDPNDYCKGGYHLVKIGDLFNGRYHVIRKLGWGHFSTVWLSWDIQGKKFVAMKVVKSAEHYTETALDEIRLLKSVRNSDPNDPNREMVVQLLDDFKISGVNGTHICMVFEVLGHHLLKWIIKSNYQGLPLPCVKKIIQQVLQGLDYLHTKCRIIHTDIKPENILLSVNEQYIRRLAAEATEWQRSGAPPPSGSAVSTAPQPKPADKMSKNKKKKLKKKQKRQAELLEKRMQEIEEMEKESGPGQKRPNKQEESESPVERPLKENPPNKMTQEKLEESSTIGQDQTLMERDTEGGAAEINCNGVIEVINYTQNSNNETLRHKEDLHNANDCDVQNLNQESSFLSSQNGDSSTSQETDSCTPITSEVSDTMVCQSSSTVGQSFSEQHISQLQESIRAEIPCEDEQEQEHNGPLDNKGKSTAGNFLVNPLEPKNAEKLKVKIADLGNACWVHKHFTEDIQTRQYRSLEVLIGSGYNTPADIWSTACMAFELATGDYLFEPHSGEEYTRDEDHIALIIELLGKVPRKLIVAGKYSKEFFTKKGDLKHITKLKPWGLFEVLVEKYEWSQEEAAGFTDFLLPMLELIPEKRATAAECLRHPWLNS
# T1 sequence (Q16654 whole entry): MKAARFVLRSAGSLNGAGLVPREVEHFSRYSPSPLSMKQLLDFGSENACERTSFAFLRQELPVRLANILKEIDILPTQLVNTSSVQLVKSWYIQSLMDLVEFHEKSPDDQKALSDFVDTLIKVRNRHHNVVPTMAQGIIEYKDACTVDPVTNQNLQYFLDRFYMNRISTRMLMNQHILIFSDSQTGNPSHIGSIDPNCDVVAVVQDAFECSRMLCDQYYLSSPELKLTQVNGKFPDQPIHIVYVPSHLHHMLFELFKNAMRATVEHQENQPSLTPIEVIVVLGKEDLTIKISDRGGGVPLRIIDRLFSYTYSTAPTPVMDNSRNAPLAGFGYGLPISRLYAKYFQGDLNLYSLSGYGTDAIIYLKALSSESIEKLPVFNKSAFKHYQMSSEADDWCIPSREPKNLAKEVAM
# T7 sequence (P10721 26-976): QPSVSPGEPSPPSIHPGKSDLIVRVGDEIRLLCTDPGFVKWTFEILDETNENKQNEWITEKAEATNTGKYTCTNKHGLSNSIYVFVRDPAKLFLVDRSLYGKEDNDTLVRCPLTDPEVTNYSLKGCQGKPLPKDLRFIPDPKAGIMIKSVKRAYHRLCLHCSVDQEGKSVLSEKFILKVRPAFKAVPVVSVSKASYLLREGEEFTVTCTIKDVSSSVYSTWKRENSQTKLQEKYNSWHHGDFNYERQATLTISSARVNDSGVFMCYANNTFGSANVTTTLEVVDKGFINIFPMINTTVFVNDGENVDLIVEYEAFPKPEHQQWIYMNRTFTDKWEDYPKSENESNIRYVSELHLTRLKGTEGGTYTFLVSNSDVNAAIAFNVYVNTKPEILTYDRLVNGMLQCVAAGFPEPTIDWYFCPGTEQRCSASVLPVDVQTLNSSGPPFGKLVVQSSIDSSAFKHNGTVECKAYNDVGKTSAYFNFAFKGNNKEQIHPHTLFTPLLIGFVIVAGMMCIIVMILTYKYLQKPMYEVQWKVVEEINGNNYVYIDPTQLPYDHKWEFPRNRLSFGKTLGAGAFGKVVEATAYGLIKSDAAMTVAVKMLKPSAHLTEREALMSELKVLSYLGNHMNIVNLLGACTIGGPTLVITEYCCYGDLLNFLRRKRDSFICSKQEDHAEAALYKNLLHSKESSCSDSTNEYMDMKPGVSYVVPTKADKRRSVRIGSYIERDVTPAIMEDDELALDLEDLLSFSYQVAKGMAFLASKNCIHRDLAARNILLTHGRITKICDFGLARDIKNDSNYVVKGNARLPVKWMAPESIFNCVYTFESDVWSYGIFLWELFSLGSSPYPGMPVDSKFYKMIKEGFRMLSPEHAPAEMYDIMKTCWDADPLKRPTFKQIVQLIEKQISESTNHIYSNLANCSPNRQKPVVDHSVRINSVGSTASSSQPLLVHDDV
# T4 sequence (Q52WX2 whole entry): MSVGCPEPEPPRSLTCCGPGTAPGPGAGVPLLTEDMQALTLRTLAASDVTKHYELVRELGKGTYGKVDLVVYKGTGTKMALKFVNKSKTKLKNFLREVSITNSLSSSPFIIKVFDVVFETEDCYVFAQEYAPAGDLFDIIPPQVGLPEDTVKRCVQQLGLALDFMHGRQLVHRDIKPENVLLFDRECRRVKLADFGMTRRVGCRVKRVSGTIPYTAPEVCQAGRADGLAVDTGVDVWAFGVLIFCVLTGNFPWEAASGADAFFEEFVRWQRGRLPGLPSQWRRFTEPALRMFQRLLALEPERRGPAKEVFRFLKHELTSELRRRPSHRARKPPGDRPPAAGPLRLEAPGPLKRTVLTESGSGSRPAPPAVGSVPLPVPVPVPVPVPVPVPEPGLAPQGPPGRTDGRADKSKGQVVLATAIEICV
# T6 sequence (Q9Y6M4 whole entry): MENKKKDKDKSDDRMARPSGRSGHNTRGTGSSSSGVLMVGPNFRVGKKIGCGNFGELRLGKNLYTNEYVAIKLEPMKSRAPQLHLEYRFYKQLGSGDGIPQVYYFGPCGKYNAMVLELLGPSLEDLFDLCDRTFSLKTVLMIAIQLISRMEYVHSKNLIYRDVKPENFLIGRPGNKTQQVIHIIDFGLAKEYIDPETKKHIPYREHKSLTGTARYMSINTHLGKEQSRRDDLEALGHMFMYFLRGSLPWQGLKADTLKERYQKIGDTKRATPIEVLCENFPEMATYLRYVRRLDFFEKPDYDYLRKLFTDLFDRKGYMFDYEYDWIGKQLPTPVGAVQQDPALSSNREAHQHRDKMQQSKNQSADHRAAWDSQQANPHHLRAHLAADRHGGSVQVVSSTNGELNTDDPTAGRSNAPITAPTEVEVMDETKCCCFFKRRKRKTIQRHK
smiles,measurement,setting,value
C=CC(=O)Nc1cc(-c2cc(-c3cc4c([nH]3)CCNC4=O)ccn2)ccc1OC(F)(F)F [compound 11],inhibition at 0.01 µM,[1]; 10 nM,-5%
same,inhibition at 0.1 µM,[1]; 100 nM,-7%
same,inhibition at 1 µM,[1]; 1000 nM,-19%
same,inhibition at 0.01 µM,[2]; 10 nM,1%
same,inhibition at 0.1 µM,[2]; 100 nM,8%
same,inhibition at 1 µM,[2]; 1000 nM,4%
same,inhibition at 0.01 µM,[3]; 10 nM,-9%
same,inhibition at 0.1 µM,[3]; 100 nM,-2%
same,inhibition at 1 µM,[3]; 1000 nM,3%
same,inhibition at 0.01 µM,[4]; 10 nM,-1%
same,inhibition at 0.1 µM,[4]; 100 nM,-8%
same,inhibition at 1 µM,[4]; 1000 nM,3%
same,inhibition at 0.01 µM,[5]; 10 nM,-2%
same,inhibition at 0.1 µM,[5]; 100 nM,-1%
same,inhibition at 1 µM,[5]; 1000 nM,-13%
same,inhibition at 0.01 µM,[6]; 10 nM,-13%
same,inhibition at 0.1 µM,[6]; 100 nM,15%
same,inhibition at 1 µM,[6]; 1000 nM,67%
same,inhibition at 0.01 µM,[7]; 10 nM,1%
same,inhibition at 0.1 µM,[7]; 100 nM,-14%
same,inhibition at 1 µM,[7]; 1000 nM,9%
same,inhibition at 0.01 µM,[8]; 10 nM,6%
same,inhibition at 0.1 µM,[8]; 100 nM,13%
same,inhibition at 1 µM,[8]; 1000 nM,22%
